The target of assay [1] is T1, Peroxisome proliferator-activated receptor delta (Homo sapiens, UniProt Q03181).
T1 sequence (Q03181 whole entry): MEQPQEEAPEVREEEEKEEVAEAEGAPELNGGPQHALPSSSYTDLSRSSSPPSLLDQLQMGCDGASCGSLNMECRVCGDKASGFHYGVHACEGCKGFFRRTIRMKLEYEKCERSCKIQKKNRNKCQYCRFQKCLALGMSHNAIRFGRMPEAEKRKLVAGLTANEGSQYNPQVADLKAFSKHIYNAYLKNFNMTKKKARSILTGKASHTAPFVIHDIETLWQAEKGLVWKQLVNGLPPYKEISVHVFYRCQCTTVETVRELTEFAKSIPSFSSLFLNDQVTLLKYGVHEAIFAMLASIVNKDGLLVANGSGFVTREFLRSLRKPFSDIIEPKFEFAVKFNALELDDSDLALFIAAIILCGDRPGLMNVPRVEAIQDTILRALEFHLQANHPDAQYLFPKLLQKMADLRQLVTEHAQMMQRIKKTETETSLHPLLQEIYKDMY
Description: Transactivation of GAL4-tagged human PPARdelta LBD expressed in human HepG2 cells at 100 nM to 100 uM incubated for 20 to 22 hrs by luciferase reporter gene assay. It is filed as cell-based. (In a reporter assay the amount or activity of a reporter protein is the signal.)

The target in assay [2] is T2, Peroxisome proliferator-activated receptor alpha (Homo sapiens) (UniProt Q07869).
T2 sequence (whole entry): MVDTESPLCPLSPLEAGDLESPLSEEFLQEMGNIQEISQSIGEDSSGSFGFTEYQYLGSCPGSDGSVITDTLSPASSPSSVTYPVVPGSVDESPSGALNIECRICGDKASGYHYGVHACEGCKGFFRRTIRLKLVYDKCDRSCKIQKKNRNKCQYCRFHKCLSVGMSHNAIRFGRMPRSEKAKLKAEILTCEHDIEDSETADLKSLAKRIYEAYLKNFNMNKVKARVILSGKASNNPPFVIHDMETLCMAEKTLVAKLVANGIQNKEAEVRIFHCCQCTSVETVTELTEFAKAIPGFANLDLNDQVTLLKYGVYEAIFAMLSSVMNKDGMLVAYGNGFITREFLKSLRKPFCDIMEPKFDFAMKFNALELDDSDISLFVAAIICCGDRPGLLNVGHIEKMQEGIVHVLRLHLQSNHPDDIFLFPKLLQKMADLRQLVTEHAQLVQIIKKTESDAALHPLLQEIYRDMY
Description: Transactivation of GAL4-tagged human PPARalpha LBD expressed in human HepG2 cells at 100 nM to 100 uM incubated for 20 to 22 hrs by luciferase reporter gene assay relative to clofibric acid. It is filed as cell-based.

Assay [3] concerns the target T3, Peroxisome proliferator-activated receptor gamma (Homo sapiens) (UniProt P37231).
T3 sequence (whole entry): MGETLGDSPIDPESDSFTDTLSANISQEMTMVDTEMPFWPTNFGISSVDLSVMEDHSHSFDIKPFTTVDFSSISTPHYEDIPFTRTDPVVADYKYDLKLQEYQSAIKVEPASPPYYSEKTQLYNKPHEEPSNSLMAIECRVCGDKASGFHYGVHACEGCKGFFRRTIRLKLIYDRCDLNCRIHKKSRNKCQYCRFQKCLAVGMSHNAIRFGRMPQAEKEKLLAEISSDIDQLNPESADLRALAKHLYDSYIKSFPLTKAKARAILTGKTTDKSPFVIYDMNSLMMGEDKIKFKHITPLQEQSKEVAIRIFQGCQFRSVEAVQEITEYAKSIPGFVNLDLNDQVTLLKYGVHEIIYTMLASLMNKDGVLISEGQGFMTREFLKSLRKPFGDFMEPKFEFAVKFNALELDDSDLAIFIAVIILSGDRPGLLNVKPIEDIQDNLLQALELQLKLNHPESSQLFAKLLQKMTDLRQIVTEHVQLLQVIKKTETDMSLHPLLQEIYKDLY
The experiment in a line: Transactivation of GAL4-tagged human PPARgamma LBD expressed in human HepG2 cells at 100 nM to 100 uM incubated for 20 to 22 hrs by luciferase reporter gene assay relative to rosiglitazone. It is filed as cell-based.

For assay [4], the target named is T4, Peroxisome proliferator-activated receptor delta (Homo sapiens) (UniProt Q03181).
T4 sequence (whole entry): T1 sequence (Q03181 whole entry)
The experiment in a line: Transactivation of GAL4-tagged human PPARdelta LBD expressed in human HepG2 cells at 100 nM to 100 uM incubated for 20 to 22 hrs by luciferase reporter gene assay relative to L165,041. In kind it is cell-based.

Assay [5] relates to Liver. Description: Ex vivo antiinflammatory activity in Sprague-Dawley rat liver assessed as inhibition of LPS-induced PGE2 production at 1 uM incubated for 4 hrs followed by LPS addition by radioimmunoassay. It is filed as functional, tissue-based.
Assay [6] has as its system Cortex. Description: Ex vivo antiinflammatory activity in Sprague-Dawley rat cortex assessed as inhibition of LPS-induced PGE2 production at 1 uM incubated for 4 hrs followed by LPS addition by radioimmunoassay. In kind it is functional, tissue-based.
Assay [7] concerns the target T5, Peroxisome proliferator-activated receptor alpha (Homo sapiens, UniProt Q07869).
T5 sequence (Q07869 whole entry): T2 sequence (whole entry)
The experiment in a line: Transactivation of GAL4-tagged human PPARalpha LBD expressed in human HepG2 cells at 100 nM to 100 uM incubated for 20 to 22 hrs by luciferase reporter gene assay. In kind it is cell-based.

Assay [8] concerns the target T2, Peroxisome proliferator-activated receptor alpha (Homo sapiens). The experiment in a line: Potency index, ratio of EC50 for GL479 to EC50 for test compound for transactivation of GAL4-tagged human PPARalpha LBD expressed in human HepG2 cells incubated for 20 to 22 hrs by luciferase reporter gene assay. It is filed as cell-based.
The target in assay [9] is T6, Peroxisome proliferator-activated receptor gamma (Homo sapiens, UniProt P37231).
T6 sequence (P37231 whole entry): T3 sequence (whole entry)
Description: Transactivation of GAL4-tagged human PPARgamma LBD expressed in human HepG2 cells at 100 nM to 100 uM incubated for 20 to 22 hrs by luciferase reporter gene assay. In kind it is cell-based.

For assay [10], the target named is T2, Peroxisome proliferator-activated receptor alpha (Homo sapiens). The experiment in a line: Agonist activity at PPARalpha in human HepG2 cells assessed as increase in CPT1A RNA expression at 100 uM incubated for 48 hrs by qRT-PCR analysis relative to control. It is filed as cell-based. A general note: Quantitative PCR measures a nucleic acid by following its amplification.

Assay [11] has as its target T4, Peroxisome proliferator-activated receptor delta (Homo sapiens). Description: Agonist activity at PPARdelta in human HepG2 cells assessed as increase in PDK4 RNA expression at 100 uM incubated for 48 hrs by qRT-PCR analysis relative to control. It is filed as cell-based.
Assay [12] concerns the target T3, Peroxisome proliferator-activated receptor gamma (Homo sapiens). Description: Agonist activity at PPARgamma in human HepG2 cells assessed as increase in GLUT1 RNA expression at 100 uM incubated for 48 hrs by qRT-PCR analysis relative to control. It is filed as cell-based.
Assay [13] deals with Liver. Description: Ex vivo antiinflammatory activity in Sprague-Dawley rat liver assessed as inhibition of LPS-induced PGE2 production at 0.1 to 10 uM incubated for 4 hrs followed by LPS addition by radioimmunoassay. In kind it is functional, tissue-based.
Assay [14] has as its system Cortex. Description: Ex vivo antiinflammatory activity in Sprague-Dawley rat cortex assessed as inhibition of LPS-induced PGE2 production at 0.1 to 10 uM incubated for 4 hrs followed by LPS addition by radioimmunoassay. It is filed as functional, tissue-based.
In assay [15] the target is T4, Peroxisome proliferator-activated receptor delta (Homo sapiens). The experiment in a line: Agonist activity at PPARdelta in human HepG2 cells assessed as increase in PDK4 RNA expression at 2 uM incubated for 48 hrs by qRT-PCR analysis relative to control. In kind it is cell-based.

Active and inactive are the calls of the source. The calls are words filed in the database; no cut-off is given here.

As to `CC(C)(Oc1ccc(OCCc2ccc(/N=N/c3ccc([N+](=O)[O-])cc3)cc2)cc1)C(=O)O`, a half-maximal response in assay [1] (EC50) required 2.3 µM. The Emax in assay [2] is 19%; in assay [3] it was 10%; in [4], 28%.
As to `CCc1ccc(CCOc2ccc(CC3SC(=O)NC3=O)cc2)nc1` (stereo not drawn), the result in [5] and in assay [6] was Active.
As for `CC(C)(Oc1ccc(CCOc2ccc(/N=N/c3ccc(Cl)cc3)cc2)cc1)C(=O)O`, the EC50 in [7] was found to be 0.38 µM; in assay [1], 3.1 µM. For the same compound, the Emax in assay [2] is 60%; in assay [3], 12%; in assay [4] it was 23%. Further, in [8], the Ratio EC50 came out at 5.
On to `CC(C)(Oc1ccc(OCCc2ccc(/N=N/c3ccc(Br)cc3)cc2)cc1)C(=O)O`, for which the results for the EC50 in [7] and in [1] were 1.9 µM and 1.1 µM, respectively. The Emax came to 35% in assay [2], 8% in assay [3] and 29% in assay [4].
As to `CC(C)(Oc1ccc(CCOc2ccc(/N=N/c3ccc([N+](=O)[O-])cc3)cc2)cc1)C(=O)O`, the midpoint of the response in assay [1], the EC50, lay at 4.1 µM. Further, the Emax in assay [2] worked out at 11%; in assay [3], 14%; in assay [4] it was 21%.
Consider `CC(C)(Oc1ccc(CCOc2ccc(/N=N/c3ccc(C(F)(F)F)cc3)cc2)cc1)C(=O)O`, for which the EC50 in [7] stood at 2.3 µM; in [1] it was 1.8 µM. Also, the values for the Emax in [2], in [3] and in assay [4] were 35%, 8% and 24%, respectively.
In the case of `CC(C)(Oc1ccc(CCOc2ccc(/N=N/c3ccc(C#N)cc3)cc2)cc1)C(=O)O`, the figures for the EC50 in assay [7] and in [1] were 2.6 µM and 6.5 µM, respectively. For the same compound, the Emax in assay [2] came to 25%; in assay [3], 12%; in assay [4], 20%.
The compound `CC(C)(Oc1ccc(OCCc2ccc(/N=N/c3ccc(C(F)(F)F)cc3)cc2)cc1)C(=O)O` registered a 50% effective concentration (EC50) in [7] of 2.2 µM. For the same compound, the Emax in assay [2] came to 37%; in [3], 9%; in assay [4], 12%.
As to `CC(C)(Oc1ccc(CCOc2ccc(/N=N/c3ccc(Br)cc3)cc2)cc1)C(=O)O`, the EC50 was determined as 0.81 µM in [7] and 3.9 µM in [1]. The Emax came to 71% in [2], 12% in [3] and 29% in assay [4]. Moreover, the Ratio EC50 in [8] turned out to be 3.
Turning to `CC(C)(Oc1ccc(OCCc2ccc(/N=N/c3ccccc3)cc2)cc1)C(=O)O`, the figures for the EC50 in assay [7], in assay [9] and in [1] were 0.25 µM, 6 µM and 2.8 µM, respectively. The Emax in [2] came to 69%; in assay [3], 24%; in assay [4], 35%. Moreover, the result in [10], in [11], in assay [12], in assay [13] and in [14] was Active.
In the case of `CC(C)(Oc1ccc(CCOc2ccc(/N=N/c3ccccc3)cc2)cc1)C(=O)O`, the EC50 was determined as 2.1 µM in [7] and 6.4 µM in assay [1]. Further, the Emax in assay [2] was determined as 56%; in assay [3] it was 13%; in assay [4] it was 39%.
With `CC(C)(Oc1ccc(OCCc2ccc(/N=N/c3ccc(Cl)cc3)cc2)cc1)C(=O)O`, the concentration for a half-maximal effect (EC50) in assay [7] was 0.51 µM; in assay [1], 1.2 µM. The figures for the Emax in assay [2], in assay [3] and in assay [4] were 52%, 10% and 41%, respectively.
Turning to `Cc1cccc(Nc2cc(Cl)nc(SCC(=O)O)n2)c1C`, the result in [5] and in assay [6] was Active.
`CCCc1c(OCCCOc2ccc(OCC(=O)O)cc2)ccc(C(C)=O)c1O` showed an EC50 in assay [1] of 0.21 µM. Moreover, in assay [15], the outcome was Active. Further, the outcome in [5] and in assay [6] was inactive.
As to `CC(C)(Oc1ccc(OCCc2ccc(/N=N/c3ccc(C#N)cc3)cc2)cc1)C(=O)O`, the EC50 in assay [7] turned out to be 1.4 µM; in [1] it was 2.8 µM. For the same compound, the Emax in assay [2] is 61%; in assay [3], 12%; in assay [4], 50%.
As for `COc1ccc(/N=N/c2ccc(OCCc3ccc(OC(C)(C)C(=O)O)cc3)cc2)cc1`, the EC50 in assay [7] came to 2.4 µM; in [1] it was 1.4 µM. Besides, the Emax in assay [2] came out at 32%; in assay [3], 10%; in [4], 23%.

As a reminder, the EC50 is the concentration at which the effect is half-maximal.
